{"source": "paper PMC8659006", "about": "(Molecules, 2021)", "key": {"[1]": {"tested_on": "P. aeruginosa 337005, S. aureus 1882 and ETEC K88", "format": "cell-based", "experimental": "(§1) The reference strains P. aeruginosa 337005, S. aureus 1882 and ETEC K88 were cultivated at 37 °C for 12 h. […] Then, 180 µL MH broth per well were added to the microtiter plate (Corning, Corning, NY, USA), and then 2 µL of the diluted bacterial solution was dispensed into each well. Peptides were then serially diluted with Milli-Q water, and 20 µL dilutions were added to the wells. Then, 2 µL Milli-Q water instead of 2 µL diluted bacterial solution was used as a blank control, and 20 µL Milli-Q water instead of 20 µL peptide dilution was used as a growth control. After culturing for 12 h at 37 °C, the MIC of the reference strain was observed, and the experiment was performed in three independent replicates."}, "P.aeruginosa 337005": {"tested_on": "P.aeruginosa 337005", "format": "cell-based, Pseudomonas aeruginosa", "experimental": "as §1"}, "S. aureus 1882": {"tested_on": "S. aureus 1882", "format": "cell-based, Staphylococcus aureus", "experimental": "as §1"}, "ETEC K88 [2]": {"tested_on": "ETEC K88", "assay": "Scanning electron microscopy of treated bacteria", "format": "cell-based, Enterotoxigenic Escherichia coli", "experimental": "Scanning electron microscopy (SEM) was used to observe the damage of CLP to bacterial cell membranes. ETEC K88 was incubated at 37 °C for 12 h and then diluted with PBS to 5 × 10^5 CFU/mL. […] The CLP-treated ETEC K88 was washed with PBS and treated with 2.5% glutaraldehyde overnight. After dehydrating with alcohol and drying for gold coating, the samples were imaged by Quanta 200 (FEI)."}, "ETEC K88 [3]": {"tested_on": "ETEC K88", "assay": "Inhibition zone, Kirby–Bauer diffusion method", "format": "cell-based, Enterotoxigenic Escherichia coli", "settings": "50 µL on filter disk, 37 °C, 12 h, compared to PBS control and SUMO-TEV-CLP, n = 3", "experimental": "(§2) ETEC K88 was used as a reference strain. […] The experiment was performed in three independent replicates."}, "ETEC K88 [4]": {"tested_on": "ETEC K88", "assay": "Propidium iodide uptake (membrane permeabilization)", "format": "cell-based, Enterotoxigenic Escherichia coli", "settings": "100% = 0.05% SDS, average of 3 replicates", "experimental": "PI can stain DNA, but cannot penetrate the complete cell membrane. Therefore, the fluorescence intensity of PI is positively correlated with the degree of cell membrane damage. The reference strain ETEC K88 was cultured at 37 °C for 12 h, and then diluted to 5 × 10^5 CFU/mL. Then, 10 µg/mL PI (Thermo Fisher, Waltham, MH, USA) was added to the diluted bacterial solution. […] The fluorescence intensity was measured using a microplate reader (Synergy H1, Bio Tek, Winooski, VT, USA) at the excitation wavelength and emission wavelength of 535 nm and 617 nm, respectively. During the continued 120 min reaction, the fluorescence values were monitored every 10 min. The PBS was a negative control, and 0.05% SDS was a positive control."}, "ETEC K88 [5]": {"tested_on": "ETEC K88", "assay": "pH stability, antibacterial activity by inhibition zone", "format": "physicochemical, Enterotoxigenic Escherichia coli", "settings": "pH 4.0 to 9.0, 2 h, n = 3", "experimental": "as §2\n(§3) The reference strain was ETEC K88."}, "ETEC K88 [6]": {"tested_on": "ETEC K88", "assay": "Thermal stability, antibacterial activity by inhibition zone", "format": "physicochemical, Enterotoxigenic Escherichia coli", "settings": "for Antimicrobial activity after heat treatment: n = 3", "experimental": "as §2, §3"}, "ETEC K88 [7]": {"tested_on": "ETEC K88", "assay": "MIC, microbroth dilution", "format": "cell-based, Enterotoxigenic Escherichia coli", "settings": "micro-dilution in MH broth, 37 °C, 12 h, three independent replicates", "experimental": "as §1"}, "human erythrocytes": {"tested_on": "human erythrocytes", "settings": "90 µg/mL; cited from earlier work", "from_the_text": "The low hemolytic activity of antimicrobial peptides on mammalian red blood cells is very important in clinical applications."}, "[8]": {"settings": "range over P. aeruginosa 337005, S. aureus 1882, ETEC K88"}, "[9]": {"settings": "micro-dilution in MH broth, 37 °C, 12 h, three independent replicates"}}, "note": "Read-outs that look alike come from different tables or passages of the source. Where no end group is shown, it is not given here.", "data": [{"molecule": "KWKLFKKIIGKEFKRIVQRIKDFLRNLVPRTERKDVT [rCLP]", "values": [{"measurement": "MICs for all the three reference strains (range)", "setting": "[1]; 12 h", "value": "2 to 8", "unit": "µg/mL"}, {"measurement": "MIC", "setting": "P.aeruginosa 337005; 337005, 12 h", "value": 2, "unit": "µg/mL"}, {"measurement": "MIC", "setting": "S. aureus 1882; 1882, 12 h", "value": 8, "unit": "µg/mL"}, {"measurement": "Membrane morphology by SEM", "setting": "ETEC K88 [2]", "value": "damaged the integrity of the bacterial cell membrane"}, {"measurement": "Inhibition zone against ETEC K88", "setting": "ETEC K88 [3]", "value": "significantly inhibited the growth"}, {"measurement": "Increase of PI fluorescence uptake", "setting": "ETEC K88 [4]; 0.5 × MIC (1 µg/mL), 50 min", "value": 16.0, "unit": "%"}, {"measurement": "Increase of PI fluorescence uptake", "setting": "ETEC K88 [4]; 0.5 × MIC (1 µg/mL), 120 min", "value": 51.5, "unit": "%"}, {"measurement": "Increase of PI fluorescence uptake", "setting": "ETEC K88 [4]; 2 × MIC (4 µg/mL), 50 min", "value": 83.3, "unit": "%"}, {"measurement": "Increase of PI fluorescence uptake", "setting": "ETEC K88 [4]; 2 × MIC (4 µg/mL), 120 min", "value": 97.0, "unit": "%"}, {"measurement": "Activity maintained throughout pH range", "setting": "ETEC K88 [5]", "value": "more than 74.8%"}, {"measurement": "Antimicrobial activity after heat treatment", "setting": "ETEC K88 [6]; 70 °C for 30 min", "value": "almost completely retained"}, {"measurement": "Antimicrobial activity after heat treatment", "setting": "ETEC K88 [6]; temperatures above 70 °C (up to 100 °C), 30 min", "value": "significantly reduced the activity"}]}, {"molecule": "CC[C@H](C)[C@H](NC(=O)[C@H](CCCCN)NC(=O)[C@H](CCC(=O)O)NC(=O)[C@H](CCCCN)NC(=O)[C@H](CO)NC(=O)[C@H](CCCCN)NC(=O)[C@H](CCCNC(=N)N)NC(=O)[C@H](Cc1ccccc1)NC(=O)[C@H](Cc1ccccc1)NC(=O)[C@H](CC(=O)O)NC(=O)CNC(=O)[C@H](CC(C)C)NC(=O)[C@@H](N)CC(C)C)C(=O)NCC(=O)N[C@@H](CCCCN)C(=O)N[C@@H](CCC(=O)O)C(=O)N[C@@H](Cc1ccccc1)C(=O)N[C@@H](CCCCN)C(=O)N[C@@H](CCCNC(=N)N)C(=O)N[C@H](C(=O)N[C@H](C(=O)N[C@@H](CCC(N)=O)C(=O)N[C@@H](CCCNC(=N)N)C(=O)N[C@H](C(=O)N[C@@H](CCCCN)C(=O)N[C@@H](CC(=O)O)C(=O)N[C@@H](Cc1ccccc1)C(=O)N[C@@H](CC(C)C)C(=O)N[C@@H](CCCNC(=N)N)C(=O)N[C@@H](CC(N)=O)C(=O)N[C@@H](CC(C)C)C(=O)N[C@H](C(=O)N1CCC[C@H]1C(=O)N[C@@H](CCCNC(=N)N)C(=O)N[C@H](C(=O)N[C@@H](CCC(=O)O)C(=O)N[C@@H](CO)C(=O)O)[C@@H](C)O)C(C)C)[C@@H](C)CC)C(C)C)[C@@H](C)CC", "note": "[LL37]", "values": [{"measurement": "MIC", "setting": "ETEC K88 [7]", "value": 16, "unit": "µg/mL"}, {"measurement": "MICs for all the three reference strains (range)", "setting": "[1]; [8]", "value": "16 to 32", "unit": "µg/mL"}, {"measurement": "MIC", "setting": "P.aeruginosa 337005; [9]", "value": 32, "unit": "µg/mL"}, {"measurement": "MIC", "setting": "S. aureus 1882; [9]", "value": 32, "unit": "µg/mL"}, {"measurement": "Hemolysis", "setting": "human erythrocytes", "value": "about 30%"}]}, {"molecule": "RKDVY [TP5]", "values": [{"measurement": "MICs for all the three reference strains (range)", "setting": "[1]; [8]", "value": "over 512 µg/mL"}]}, {"molecule": "KWKLFKKIIGKEFKRIVQRIKDFLRNLVPRTERKDVT [sCLP]", "values": [{"measurement": "MIC", "setting": "P.aeruginosa 337005; 337005, 12 h", "value": 2, "unit": "µg/mL"}, {"measurement": "MIC", "setting": "S. aureus 1882; 1882, 12 h", "value": 8, "unit": "µg/mL"}, {"measurement": "Stability compared with recombinant CLP", "setting": "ETEC K88 [6]; same temperature, pH value and enzyme treatment", "value": "almost the same stability"}]}]}
